From patent US20240002441A1, “PEPTIDES AND USES THEREOF IN MODULATION OF AMYLOID-BETA PROTEIN DEGRADING PROTEASES” (priority 2020, published 2024) come the findings set out here.

Series [1] deals with Ang II-induced expression of IL-6 and Collagen III in EA.hy926 cells. In words: Ang II-induced expression of IL-6 and Collagen III in EA.hy926 cells, western blotting (Example 9). Format: cell-based. The procedure: EA.hy926 cells (passage 40) were seeded at a density of 1×10^6 cells/mL. After 24 hours, cells were incubated overnight in reduced serum media. Cells were then treated over 24 h as follows: • 1. Vehicle control • 2. Ang II (10 nM) • 3. […] Ang II (10 nM)+rhACE2 (0.05 ng/μL) • 5.
Following incubation, cells were lysed using lysis buffer (Thermo Fisher Scientific, Cat #89900) containing 1% protease inhibitor (Thermo Fisher Scientific, Cat #1861278). Cell lysate was centrifuged at 13,000 rpm for 10 min. Protein concentration in the supernatant was determined by NanoDrop (Thermo Fisher Scientific, Cat #ND-1000). Supernatants were stored at −30° C. until analysed.
Samples were diluted in SDS-PAGE reducing sample buffer (Bio-Rad Laboratories, Cat #1610747; California, USA) containing 1% β-mercaptoethanol (Bio-Rad Laboratories, Cat #221610710) to reach a final concentration of […]. Prior to loading, samples were heated at 95° C. for 5 min. Samples were loaded into the wells alongside the molecular weight marker (Life Technologies, Cat #LC5800; California, USA). Electrophoresis was conducted at 200 V for 40 min in 1× running buffer. Following protein separation by SDS-PAGE, proteins were blotted onto nitrocellulose membranes at 100 V for 1 h in 1× transfer buffer. The membranes were then blocked in 5% skim milk in 1× Tris-buffered saline (TBST) containing 0.05% Tween 20 (Thermo Fisher Scientific, Cat #28352) for 1 h at room temperature. The membranes were incubated with IL-6 (1:500; Thermo Fisher Scientific, Cat #700480) or collagen III (1:500; Invitrogen, Cat #PA5-27828) primary antibodies while rocking at 4° C. overnight. Membranes were then probed with secondary antibody conjugated with horseradish peroxidase (HRP) (1:6000) for 1 h at room temperature. The HRP-labelled proteins were detected using chemiluminescence SuperSignal™ ECL Western Blotting Substrate (Thermo Fisher Scientific, Cat #34577) at 1:1 ratio. Beta-actin was used as a loading control. Protein bands were analysed using ImageJ (version 1.51) and band density was normalised with the respective beta-actin.

Series [2] addresses T1, NEP (Homo sapiens, UniProt P08473).
T1 construct: purchased R & D systems 1182-ZNC-010
In words: Cleavage of synthetic Aβ40 by NEP, LCMS (Example 7). Format: biochemical. The following applies: peptide 9 μM. The procedure: Synthetic Aβ40 (0.10 μg/μL) was added to a reaction mixture containing NEP (0.05 ng/μL) pre-incubated with SEQ ID NO:2 or scrambled control (9 μM) for 1 h at 37° C. Synthetic Aβ42 (0.05 μg/μL) was added to a reaction mixture containing NEP (0.15 ng/μL) preincubated with either scrambled control or SEQ ID NO:2 (9 μM) for 1 h at 37° C. Samples containing enzyme alone had only NEP buffer (Table 2). The cleavage reaction was allowed to continue in a thermomixer at 37° C. Aliquots of equal volume were taken over 24 h. Aliquots were immediately acidified with 0.1% trifluoroacetic acid (TFA) to terminate enzyme activity and snap frozen in dry ice. Samples were stored at −80° C. until analysed by LCMS.
Samples were analysed by LC-MS/MS using a quadrupole TOF mass spectrometer (MicroTOFq, Bruker Daltonics, Bremen, Germany) coupled online with a 1200 series nano-HPLC (Agilent technologies, Santa Clara, CA, USA). Samples were injected onto a zorbax 300SB reversed phase trap column with 95% solvent A (0.1% formic acid) at a flow rate of 10 μL/minute. The peptides were eluted over a 10-min gradient to 70% solvent B (80% acetonitrile, 0.1% formic acid) and separated on a 15-cm, 75-μmID zorbax 300SB nanocolumn. The eluent was nebulised and ionised using the Bruker nano-ESI source with a capillary voltage of 4500 V, dry gas at 180° C., flow rate of 5 L/minute and nebuliser gas pressure at 300 mbar. The MS acquisition was in selected ion monitoring mode after selected ion extraction of the MS spectra. Prior to analysis, the qTOF mass spectrometer was calibrated using a 1:50 dilution tuning mix (Agilent technologies, Santa Clara, CA, USA). Data from MS run were processed in Skyline version 19.1.0.193 (Uni. Of Washington, WA, USA) to perform ion chromatogram extractions and peak integrations.

The target of series [3] is T1, NEP. Put plainly: QFS plate reader enzyme assay, peptide screen on NEP activity (Example 3). Conditions: peptide 10 ng/μL, NEP 0.05 ng/μL, 1 h at 37° C.; compared to enzyme alone. It counts as biochemical. The procedure:
(§1) Plate reader-based enzyme assays were performed using a quenched fluorescent substrate (QFS) in a 96-well format using a SpectraMAX M4 Microplate reader (Molecular Devices). The increase in fluorescence following addition of QFS (40 μM) was taken as evidence of enzyme activity. Fluorescence was monitored over 2 h at 37° C. using κEx=320 nm and λEm=405 nm. Assays were conducted in black 96-well plates. Specific enzyme activity was expressed as a rate of substrate cleavage calculated using a standard curve of 7-methoxy-coumarin-4-acetic acid.
(§2) In all plate reader-based enzyme assays using QFS, the reaction rate (μmol of substrate cleaved/min) was calculated using linear regression analysis (GraphPad Prism software version 8.01). The reaction rates calculated were used to generate the enzyme kinetic parameters Vmax and Km through non-linear regression analysis (GraphPad Prism software, version 8.01; Michaelis-Menten equation). Where indicated, enzyme activity in the presence of peptide was expressed as a % of the enzyme alone. Data were expressed as mean±SEM and statistical significance was determined using t-tests or one-way ANOVAs followed by Tukey's post-hoc test. P<0.05 was considered as statistically significant. In all assays conducted using 96-well plates, the reaction mixtures in each well were considered an independent experiment.
(§3) SEQ ID NOS: 1, 5 and 9-15 were screened for their effects on NEP and ECE1 using a high-throughput QFS assay using the method in Example 2 and the following procedure. NEP or ECE1 (0.05 ng/μL) was incubated with each peptide (10 ng/μL) for 1 h at 37° C.

The test system of a further series is EA.hy926 cells. Put plainly: Peptide stability study in EA.hy926 endothelial cells, LCMS (Example 4). Format: in vitro ADME. Conditions: peptide 9 μM, Opti-MEM. The procedure: (§4) SEQ ID NO:2 was prepared as a C-terminal amidated analogue of SEQ ID NO:1. The stability of SEQ ID NO:1 and SEQ ID NO:2 was assessed in HEK293 and EA.hy926 cells grown in culture and their break down was monitored by LCMS over 60 min using the following procedure.
(§5) HEK293 (passage 24) or Ea.hy926 (passage 37) were seeded into tissue-culture-grade 96-well plates at a density of 20,000 cells/well. After 24 hr, cells were washed with PBS and replaced with Opti-MEM reduced serum media containing SEQ ID NO:1 or SEQ ID NO:2 (9 μM). Aliquots of equal volume were taken at T=0 and 60 min. SEQ ID NO:2 was added to control wells having media (no cells) only. Samples were immediately acidified in 0.1% TFA, snap frozen in dry ice and stored in −80° C. until analysed by LCMS.
(§6) Samples were analyzed by LC-MS/MS on a Shimadzu Nexera uHPLC (Japan) coupled to a Triple Tof 5600 mass spectrometer (ABSCIEX, Canada) equipped with a duo electrospray ion source. One μL of each extract was injected onto a 2.1 mm×100 mm Zorbax C18 1.8 um column (Agilent) at 200 μL/min. […] SEQ ID NO:1 and SEQ ID NO:2 were quantified using the […] doubly charged molecular ion from m/z 510.270 to 510.325. The data was acquired using Analyst TF 1.6 and quantification was carried out using MultiQuant 2.1.1 software (ABSCIEX, Canada).

The next series deals with HEK293 cells. Put plainly: Peptide stability study in HEK293 cells, LCMS (Example 4). It counts as in vitro ADME. Conditions: peptide 9 μM, Opti-MEM, 60 min. The procedure:
as §4, §5, §6

A further series deals with T2, ECE1 (Homo sapiens, UniProt P42892).
T2 construct: purchased R & D systems 1784-ZN-010
T2 sequence (P42892 1-770): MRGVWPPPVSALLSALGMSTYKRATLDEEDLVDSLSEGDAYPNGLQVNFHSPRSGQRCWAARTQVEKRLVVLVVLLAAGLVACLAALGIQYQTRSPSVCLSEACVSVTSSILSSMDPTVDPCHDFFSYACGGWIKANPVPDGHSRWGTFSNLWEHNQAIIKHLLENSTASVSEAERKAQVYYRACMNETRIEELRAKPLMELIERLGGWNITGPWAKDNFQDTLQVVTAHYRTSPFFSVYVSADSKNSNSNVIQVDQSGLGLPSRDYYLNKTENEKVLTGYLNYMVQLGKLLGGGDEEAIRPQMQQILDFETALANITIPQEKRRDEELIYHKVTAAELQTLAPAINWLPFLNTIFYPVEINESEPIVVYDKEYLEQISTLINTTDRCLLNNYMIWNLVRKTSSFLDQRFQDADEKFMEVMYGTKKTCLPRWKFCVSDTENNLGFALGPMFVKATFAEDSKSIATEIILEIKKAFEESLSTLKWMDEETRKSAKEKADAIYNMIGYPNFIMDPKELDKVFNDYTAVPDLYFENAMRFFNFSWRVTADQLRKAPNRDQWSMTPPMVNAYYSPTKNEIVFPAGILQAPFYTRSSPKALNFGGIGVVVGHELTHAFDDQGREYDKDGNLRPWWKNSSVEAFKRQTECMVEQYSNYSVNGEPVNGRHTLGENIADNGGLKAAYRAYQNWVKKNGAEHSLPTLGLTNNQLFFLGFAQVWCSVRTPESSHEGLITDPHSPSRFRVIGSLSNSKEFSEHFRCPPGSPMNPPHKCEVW
Put plainly: QFS plate reader enzyme assay, peptide screen on ECE1 activity (Example 3). Format: biochemical. Conditions: peptide 10 ng/μL, ECE1 0.05 ng/μL, 1 h at 37° C.; compared to enzyme alone. The procedure:
as §1, §2, §3

[4] abbreviates: Ang II 10 nM + peptide 26 μM + rhACE2 0.05 ng/μL + MLN-4760 10 μM.

T1 sequence (P08473 whole entry): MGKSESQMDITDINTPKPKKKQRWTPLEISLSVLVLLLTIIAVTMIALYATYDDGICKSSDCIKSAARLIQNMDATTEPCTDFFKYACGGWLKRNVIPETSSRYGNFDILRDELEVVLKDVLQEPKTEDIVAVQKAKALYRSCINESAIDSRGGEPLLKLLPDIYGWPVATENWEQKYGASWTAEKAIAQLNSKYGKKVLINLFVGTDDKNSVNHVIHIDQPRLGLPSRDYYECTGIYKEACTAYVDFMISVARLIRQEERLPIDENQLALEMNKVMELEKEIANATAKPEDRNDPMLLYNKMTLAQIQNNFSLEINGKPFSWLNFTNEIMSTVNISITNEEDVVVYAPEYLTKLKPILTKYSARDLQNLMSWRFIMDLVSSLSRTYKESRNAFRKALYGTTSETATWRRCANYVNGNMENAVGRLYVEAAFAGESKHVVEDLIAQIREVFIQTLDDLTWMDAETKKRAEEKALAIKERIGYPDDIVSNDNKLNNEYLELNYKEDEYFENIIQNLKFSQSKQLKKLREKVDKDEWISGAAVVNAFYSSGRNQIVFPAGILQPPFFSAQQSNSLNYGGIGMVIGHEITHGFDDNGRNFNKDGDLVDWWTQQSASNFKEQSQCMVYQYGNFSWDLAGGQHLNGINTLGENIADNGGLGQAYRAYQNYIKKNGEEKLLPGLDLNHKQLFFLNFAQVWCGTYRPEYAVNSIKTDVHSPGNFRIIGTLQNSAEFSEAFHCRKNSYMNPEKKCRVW

As to `CC(C)C[C@H](N[C@@H](Cc1cncn1Cc1cc(Cl)cc(Cl)c1)C(=O)O)C(=O)O` [MLN-4760, reference compound], in series [1] (setting [4]), the “Collagen III expression in the presence of ACE2 inhibitor MLN-4760” value is 75±14% and the “IL-6 expression in the presence of MLN-4760” value is “no difference”.
With “Ang II: Angiotensin II, potent vasoconstrictor with fibrotic and inflammatory effects; stimulus in EA.hy926 cells (DRVYIHPF; Angiotensin-2; UniProt P01019 25-32, looked up) [reference compound]”, the “Collagen III expression” value in series [1] (EA.hy926 cells, 24 h, Ang II 10 nM alone, or Ang II and 2A (26 μM)) came to 141±30%. Besides, the IL-6 expression in series [1] (EA.hy926 cells, Ang II 10 nM, 24 h, band density normalised with beta-actin) is given as 152±8%.
With “H-KILGILFMSE-OH [scrambled control, reference compound]”, the “decrease in Aβ1-21 and increase in Aβ1-12” value on NEP [2] (Aβ40 cleavage) is reported as “not observed”. For the same molecule, the “peak area corresponding to Aβ1-12 after 24 h” value on NEP [2] (Aβ40 cleavage, 24 h) is 9.7×10^6±2.1×10^6 arbitrary units. On NEP [2] (NEP 0.05 ng/μL, Aβ40 0.10 μg/μL, 4 h), the “amount of Aβ40 remaining after 4 h (peak area)” value is 6.4×10^6±1.7×10^6 arbitrary units.
In the case of “H-SLFELGKMIL-OH [SEQ ID NO:1, H2N-SLFELGKMIL-OH]”, the NEP activity result at NEP [3] is given as “significant increase”. Moreover, the “relative amount remaining in the medium of endothelial cells at 60 min” value in the series with EA.hy926 cells is 23%±2.4%. In addition, in the series on HEK293 cells, the “amount remaining in the medium of HEK293 cells” value was 29%±3%. Also, on ECE1, the ECE1 activity entry was “no effect”.
As for H-SLFELGKMILQE-OH [SEQ ID NO:5], in the series with NEP [3], the NEP activity entry is listed as “significant increase”. The ECE1 activity entry with ECE1 is given as “no effect”.
The matching figures for H-SLFELGKMILQETG-OH [SEQ ID NO:12]: “significantly stimulate” and “significantly stimulate”.
The matching figures for H-SLFELGKMILQETGKN-OH [SEQ ID NO:11]: “significantly stimulate” and “significantly stimulate”.
Take “rhACE2: Recombinant human ACE2 (Cat #933-ZN-010) purchased from R & D systems”: the “Collagen III expression compared to cells treated with Ang II alone” value in series [1] (Ang II 10 nM plus 2A 26 μM and/or ACE2 0.05 ng/μL, 24 h) is given as “significantly lower”. In addition, the “IL-6 expression compared to cells treated with Ang II alone” value in series [1] (Ang II 10 nM plus peptide 26 μM and/or rhACE2 0.05 ng/μL, 24 h) was “significantly lower”.
